Tests used:
[1] = target: T1, prostaglandin E2 -induced contractions of segments of guinea pig ileum (Cavia porcellus, UniProt A0A286XHJ6); experiment: Prostaglandin (PGE) Antagonism Assay (prostaglandin E2-induced contractions of guinea pig ileum segments); details: initial test compound concentration 3 micromolar
T1 construct: Segments of ileum about 2 cm long were then cut and mounted in a 10 mL tissue bath; from tissue; host or cells: ileum segments of male albino guinea pigs
T1 sequence (A0A286XHJ6 1-405): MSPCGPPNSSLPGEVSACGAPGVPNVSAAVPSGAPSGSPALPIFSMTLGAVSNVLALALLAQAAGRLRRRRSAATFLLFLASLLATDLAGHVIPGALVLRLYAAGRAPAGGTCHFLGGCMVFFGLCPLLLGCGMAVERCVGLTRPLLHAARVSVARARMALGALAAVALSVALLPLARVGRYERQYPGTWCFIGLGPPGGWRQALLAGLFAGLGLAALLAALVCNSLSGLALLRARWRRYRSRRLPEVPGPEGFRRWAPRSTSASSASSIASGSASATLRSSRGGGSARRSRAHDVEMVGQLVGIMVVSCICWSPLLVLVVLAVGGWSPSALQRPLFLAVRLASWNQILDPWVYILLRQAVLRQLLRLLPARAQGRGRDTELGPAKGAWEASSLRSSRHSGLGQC
Description: The ilea were then quickly removed from the guinea pigs and placed in a modified Tyrode solution, a solution which is known to those skilled in the art, containing one-half of the usual amount of magnesium ions. […] Data for a control prostaglandin E2 dose response curve plotting concentration of prostaglandin E2 versus the intensity of contractions, detected isotonically, was then obtained by experimentally adjusting the dose of the prostaglandin E2 being injected into the tissue bath, in a manner known by those of skill in the art. Solutions or suspensions containing an initial concentration (3 micromolar) of a test compound in modified Tyrode solution ("test solutions/suspensions") were then separately substituted for the control bath solution. Each test solution/suspension was then kept in constant contact with the ileum tissue, except for brief periods to drain the bath in preparation for rinsing with fresh test solution/suspension. A second prostaglandin E2 dose response curve was then generated for prostaglandin E2 in the presence of a test compound.

mice = experiment: Writhing Assay (PBQ-induced writhing, analgesic activity in mice); type: in vivo, mouse (Charles River male albino mice); details: among compounds of the invention tested
Description: The Writhing Assay is one of the most widely-used experimental procedures for measuring the analgesic activity of different narcotic and nonnarcotic analgesic agents, and involves the continuous, chemically-induced pain of visceral origin to an animal, such as a mouse or rat. [Gyires et al., Arch. int. […] Drugs which reduce the number of writhes of the animal appear to restore the normal nociceptive threshold of the animal. […] Charles River male albino mice, weighing 20 to 30 grams, were used in this assay. […] Ten mice which were given saline in place of a test compound of the invention were used as a control group. Five minutes later, each mouse was individually placed into a glass beaker for observation, and the number of writhes occurring during the following ten-minute period was counted. […] The standard initial screening dose of a test compound employed in this assay was 30 mpk […].

SMILES: CCN(CC)CCCCCOC(=O)N1Cc2ccccc2Oc2ccc(Cl)cc21 [Example 29, 5-(diethylamino)pentyl 8-chlorodibenz[b,f]-[1,4]oxazepine-10(11H)-carboxylate]
- PGE IN GUINEA PIG ILEUM, dose ratio given as activity word [1]: Active

SMILES: COC(=O)[C@H](C)NC(=O)N1Cc2ccccc2Oc2ccc(Cl)cc21 [Example 32, methyl (L)-2R-[[(8-chlorodibenz[b,f][1,4]oxazepine-10-(11H)-yl)carbonyl]amino]propanoate]
- potency ranking in the Writhing Assay (in words) (mice): most potent compound of the invention tested in this assay
